Measured values reported in ChEMBL document CHEMBL1136406, “Amide analogues of TSA: synthesis, binding mode analysis and HDAC inhibition” (Bioorg Med Chem Lett, 2003).

Target: Histone deacetylase
Description: Inhibitory activity against histone deacetylase (HDAC)

CN(C)c1ccc(C(=O)NCCCCCC(=O)NO)cc1
IC50: 152 nM

C[C@H](CCCCC(=O)NO)NC(=O)c1ccc(N(C)C)cc1
IC50: 359 nM

C[C@H](/C=C/C=C/C(=O)NO)NC(=O)c1ccc(N(C)C)cc1
IC50: 12187 nM
